Assay results published in patent publication US8410078B2, “Composition and methods to treat cardiac diseases” (University of Connecticut, priority 2006, dated 2013).

Key:
[1] = test system: mouse thoracic aorta ring; test: Vascular reactivity of phenylephrine-preconstricted thoracic aorta rings; conditions: pre-constricted with phenylephrine, 10^−9 to 10^−5 M
Description: Thoracic aortas were quickly removed from 8 to 10-week wild type (C57 BL6) mice, cut into 3 mm rings. After pre-constriction with phenylephrine (1 μM), increasing concentrations of acetylcholine or MRS2339 were added in a cumulative fashion to achieve a concentration-response curve. The % relaxation was determined as % decrease in ring tension (gram) compared to the tension before the addition of acetylcholine or MRS2339. Data were shown as mean±SEM.

CSQ mice = test: Chronic mini-pump administration in CSQ mice: lifespan and cardiac hypertrophy; assay type: in vivo, mouse
Source text: Mice displaying the CSQ model of severe cardiomyopathy and heart failure were bred and maintained by methods known in the art. The CSQ transgenic (TG) mice were originally provided by Dr. Larry Jones (Krannert Institute of Cardiology, Indiana University School of Medicine, Indiana), and developed hypertrophy followed by a lethal heart failure phenotype with death near the age of 3 months. Ventricular myocytes were obtained from 3-month old wild type (WT) and CSQ mice of either sex (26 WT, 47 TG) by an enzymatic dissociation procedure. Briefly, the hearts were rapidly excised from mice that had been anesthetized with pentobarbital and treated with 1000 Units of heparin. The aorta was cannulated and the heart perfused in a Langendorff apparatus with oxygenated (95% O2/5% CO2) Ca^2+-free solution (37° C.) for 5 minutes at a rate of 2.5 ml/min. The solution composition was: 126 mM NaCl, 4.4 mM KCl, 1.0 mM MgCl2, 18 mM NaHCO3, 11 mM Glucose, 4 mM HEPES, and 3 mM BDM (2,3-butanedione monoxime), (pH 7.3 adjusted with NaOH). Thereafter, the perfusing solution was changed to that containing 25 μM CaCl2 and liberase (70 μg/ml, Roche Molecular Biochemicals, Inc.) for 8-10 minutes. Cells were sedimented by gravity for 10-15 minutes and the pellet was resuspended in 200 μM Ca^2+-containing Tyrode's solution (containing 3 mM BDM), allowed to settle for 30 minutes at room temperature, and suspended with Tyrode's solution containing: 135 mM NaCl, 5.4 mM KCl, 1.0 mM CaCl2, 1.0 mM MgCl2, 10 mM HEPES and 10 mM dextrose (pH 7.4 adjusted with NaOH). The experiments were carried out at room temperature (22-23° C.) and were completed within 4-6 hours after myocyte isolation.
Cardiac myocyte cross-section area was quantified by methods known in the art. […] The images of cross-sectioned cells showing consistently round shapes were captured with Macrofire® PictureFrame (Optronics, Goleta, Calif.) and cross-section area measured with ImageProPlus® (MediaCybernetics, Silver Spring, Md.). Typically, 50 to 100 cross-sectional areas were determined and averaged per heart. […]

SMILES: Nc1nc(Cl)nc2c1ncn2C1[C@H]2C[C@@]2(COP(=O)(O)O)[C@@H](O)[C@H]1O (stereo partly drawn) [MRS2339, (1′S,2′R,3′S,4′R,5′S)-4-(6-amino-2-chloro-9H-purin-9-yl)-1-[phosphoryloxymethyl]bicyclo[3.1.0]hexane-2,3-diol]
- Relaxation of aorta ring segments [1]: did not induce relaxation
- Median lifespan (CSQ mice; 3 μM solution, about 6 μl per day for 28 days via mini-pump): 115 days
- Cardiac myocyte cross-section area (CSQ mice; chronic mini-pump treatment): 281±15 μm^2
- Heart weight/body weight ratio (CSQ mice; chronic mini-pump treatment): 10.5±1.38
